Experimental data as given in article PMC10545747, “Development of cyclopeptide inhibitors of cGAS targeting protein-DNA interaction and phase separation” (Nature Communications, 2023).
Several values for one entry are separate records, joined by “and”; a condition that tells them apart may be missing. Equal values may be shown once. Square brackets hold non-standard residues; d marks the D form. Peptide text beside a SMILES is read from it.

Experiments:
HSV-1-infected WT mice = experiment: HSV-1 infection of WT mice (serum ELISA, brain qPCR, IHC); format: in vivo, mouse; parameters: brain HSV-1 mRNA, qPCR, Fig. 6d / brain HSV-1(UL5) mRNA, qPCR, Fig. 6d: unit not given here
Description: Fig. 6 XQ2B attenuates the host innate antiviral response in vivo. a Chemical structure of XQ2 and XQ2B. b, c WT mice (n = 7) were injected intravenously with DMSO or XQ2B (10 mg/kg) for 3 h, and then administrated intravenously with HSV-1 at 1 × 10^7 pfu per mouse for 6 h. Serum from mice was collected for ELISA analysis of the levels of IFN-β (b) and CXCL10 (c). p = 0.0013 (b); p = 0.0175 (c). d Brains from mice (n = 6) in (b, c) were collected for qPCR analysis of the induction of HSV-1 and HSV-1(UL5) mRNA. p = 0.0287 (HSV-1); p = 0.0136 (HSV1-UL5). e Brains from mice in (b, c) were collected for immunohistochemistry (IHC) analysis with an anti-HSV-1 antibody. Tissue sections were visualized using microscopy. Scale bar, 25 μm. Data are representative of two independent experiments in (b–e). […] Source data are provided as a Source Data file.
The indicated cells were stimulated with either ISD (Sangon Biotech), HSV-1 (Provided by Dr. Zhengfan Jiang), HSV60mer (Sangon Biotech), SATE-cddA[70], 2’3’-cGAMP (Invivogen, Cat# tlrl-nacga23-1), ADU-S100 (MedChemExpress, Cat# HY-12885A) or Poly(I:C) (Invivogen, Cat# tlrl-pic) after XQ2 or XQ2B treatment. Total RNA was isolated from indicated cells that incubated with the drugs for indicated time or mice tissues by using NucleoZOL reagent (MACHEREY-NAGEL) according to the manufacturer’s instructions. The quantifications of mRNA levels were carried out by real-time PCR using a PerfectStart® Uni RT&qPCR Kit (TransGen Biotech) on the QuantStudio 5 qPCR machine (Applied Biosystems). Samples were carried out in triplicate and the target CT values were normalized to GAPDH CT values. Primers of qPCR used in this study can be found in Supplementary Table S2.
THP1 cells were seeded into 96-well plates, and cell culture supernatants were collected and analyzed by ELISA kits for human IFNβ levels (R&D Systems, Cat# DY814-05) and human CXCL10 levels (R&D Systems, Cat# DY266-05) according to the manufacturer’s instructions. Mice serum was collected and analyzed by ELISA kits for mouse IFNβ levels (R&D Systems, Cat# DY8234-05) and mouse CXCL10 levels (R&D Systems, Cat# DY466-05) according to the manufacturer’s protocols.
Tissues were resected and fixed successively in 4% paraformaldehyde, and embedded in paraffin according to the standard procedure, and then sectioned into 10-μm slices and placed on positively charged microscope slides. Sections of the brain were subjected to immunohistochemical (IHC) staining with an anti-HSV-1 antibody (Abcam, 1:100) and HRP-conjugated anti-rabbit IgG antibody (Cell Signaling, Cat# 7074, 1:200) according to standard procedures. Sections of the heart, stomach, tongue, kidney and muscle were stained with hematoxylin and eosin. Tissue sections were visualized using an Olympus IX73 microscope (20× Objective).

human cGAS (hcGAS) = human cGAS (hcGAS) (Homo sapiens, UniProt Q8N884); experiment: biochemical; details: MST
Description: The binding ability of XQ2 with Cy5-ISD and XQ2 with human cGAS were tested using NanoTemper Monolith NT.115 instrument (20% LED, 40% MST power) at 25 °C. Serial dilutions of XQ2 were mixed with 10 nM of Cy5-ISD or 100 nM of fluorescent labeled hcGAS, incubated for 10 min at room temperature in HEPES buffer (50 mM HEPES, pH 7.5, 200 mM NaCl, 20 mM MgCl2, 0.05% Tween 20) with or without 1 mM ATP and 0.5 mM GTP or 2 M (NH4)2SO4 (Sigma-Aldrich). Excitation was optimized by varying the power to obtain fluorescence intensities above 200 counts. Data were analyzed by using the MO.Affinity Analysis software.

[1] = biological target: T1, full-length human cGAS (hcGAS-FL) (Homo sapiens, UniProt Q8N884); experiment: Surface plasmon resonance (SPR); format: binding
T1 construct: The gene encoding full-length human cGAS (hcGAS-FL); 6xHis-SUMO (N, cleaved yes); made in house; host or cells: Escherichia coli BL21 (DE3)
Description: (§1) All SPR binding studies were performed with a Biacore 8 K instrument (GE Healthcare Life Sciences). hcGAS-FL / hcGAS-ΔN (1 mg mL^−1) was immobilized in a CM5 chip by EDC/NHS method. The tested peptide was diluted with running buffer (20 mM HEPES, pH 7.5, 125 mM KCl,10 mM MgCl2). All the samples contained the same concentration of DMSO (0.5%). The tested peptide was injected at a flow rate of 30 μL min^−1 for 200 s of association, followed by 200 s of disassociation at 25 °C. The final graphs were obtained by subtracting blank sensorgrams. The data were analyzed with Biacore Insight Evaluation software.

[2] = biological target: T2, truncated cGAS (hcGAS-ΔN, residues 147–522) (Homo sapiens, UniProt Q8N884); experiment: Surface plasmon resonance (SPR); format: binding
T2 construct: N-terminally truncated human cGAS (hcGAS-ΔN, residues 147–522); 6xHis-SUMO (N, cleaved yes); made in house; host or cells: Escherichia coli BL21 (DE3)
Description: as §1

[3] = XQ2B 10 mg/kg i.v., individual mice

T1 sequence (Q8N884 whole entry): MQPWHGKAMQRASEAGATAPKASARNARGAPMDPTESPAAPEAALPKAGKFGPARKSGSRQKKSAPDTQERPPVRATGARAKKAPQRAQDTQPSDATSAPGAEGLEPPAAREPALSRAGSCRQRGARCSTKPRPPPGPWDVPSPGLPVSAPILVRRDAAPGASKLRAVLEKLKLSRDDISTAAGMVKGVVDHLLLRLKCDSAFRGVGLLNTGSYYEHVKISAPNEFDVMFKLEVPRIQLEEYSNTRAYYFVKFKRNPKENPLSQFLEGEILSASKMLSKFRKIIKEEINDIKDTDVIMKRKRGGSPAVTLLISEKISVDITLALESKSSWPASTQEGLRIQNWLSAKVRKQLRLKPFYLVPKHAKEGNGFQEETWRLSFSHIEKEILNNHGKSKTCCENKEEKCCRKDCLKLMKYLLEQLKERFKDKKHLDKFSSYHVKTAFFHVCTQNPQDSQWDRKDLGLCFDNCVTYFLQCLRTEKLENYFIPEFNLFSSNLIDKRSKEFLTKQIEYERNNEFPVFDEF
Chain of human cGAS (hcGAS) (Q8N884 whole entry): as above
T2 sequence (Q8N884 147-522, stated change not applied): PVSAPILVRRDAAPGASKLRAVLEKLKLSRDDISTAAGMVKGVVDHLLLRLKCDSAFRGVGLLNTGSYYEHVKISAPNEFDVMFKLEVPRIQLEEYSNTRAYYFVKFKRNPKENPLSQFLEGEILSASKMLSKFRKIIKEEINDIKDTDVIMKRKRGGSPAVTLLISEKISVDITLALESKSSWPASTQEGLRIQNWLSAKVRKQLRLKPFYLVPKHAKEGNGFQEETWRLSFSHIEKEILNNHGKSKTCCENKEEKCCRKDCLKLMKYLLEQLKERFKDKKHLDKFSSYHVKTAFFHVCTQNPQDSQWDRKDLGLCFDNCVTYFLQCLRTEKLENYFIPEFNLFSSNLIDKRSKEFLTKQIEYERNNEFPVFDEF

| Compound | production of IFN-β and CXCL10 upon HSV-1 infection in mice (HSV-1-infected WT mice; 10 mg/kg intravenous) | virus infection in brain tissues of mice (HSV-1-infected WT mice; 10 mg/kg intravenous) | serum IFN-β, ELISA, Fig. 6b (HSV-1-infected WT mice; XQ2B 10 mg/kg i.v. 3 h before HSV-1 1 × 10^7 pfu i.v., 6 h, individual mice) | serum CXCL10, ELISA, Fig. 6c (HSV-1-infected WT mice; XQ2B 10 mg/kg i.v., HSV-1 6 h, individual mice) | brain HSV-1(UL5) mRNA, qPCR, Fig. 6d (HSV-1-infected WT mice; [3]) | brain HSV-1 mRNA, qPCR, Fig. 6d (HSV-1-infected WT mice; [3]) | Kd (human cGAS (hcGAS); absence of ATP/GTP and (NH4)2SO4 (Mock)) [µM] | Kd (human cGAS (hcGAS); in the presence of (NH4)2SO4 (2M)) [µM] | Kd (human cGAS (hcGAS); in the presence of ATP (1mM) and GTP (0.5mM)) [µM] | Response (RU), SPR, Fig. 3a ([1]; XQ2 2.5 μM) [RU] | Response (RU), SPR, Fig. 3a ([1]; XQ2 5 μM) [RU] | Response (RU), SPR, Fig. 3a ([1]; XQ2 10 μM) [RU] | Kd ([1]; hcGAS-FL, one-to-one binding model, ± 95% CI) | Response (RU), SPR, Fig. S4b ([2]; XQ2 2.5 μM) [RU] | Response (RU), SPR, Fig. S4b ([2]; XQ2 5 μM) [RU] | Response (RU), SPR, Fig. S4b ([2]; XQ2 10 μM) [RU] | Kd ([2]; hcGAS-ΔN, Fig. S4b) [µM] |
| --- | --- | --- | --- | --- | --- | --- | --- | --- | --- | --- | --- | --- | --- | --- | --- | --- | --- |
| CC(C)C[C@@H]1NC(=O)[C@H](CCCNC(=N)N)NC(=O)[C@H](C(C)C)NC(=O)[C@@H]2CCCN2C(=O)[C@@H](Cc2ccccc2)NC(=O)[C@H](CC(C)C)NC(=O)[C@H](CCCNC(=N)N)NC(=O)[C@H]([C@@H](C)O)NC(=O)[C@H](C)NC(=O)[C@@H](Cc2ccccc2)NC1=O [XQ2B] (cyclo([dF]ATRL[dF]PVRL)) | significantly impaired the production of IFN-β and CXCL10 upon HSV-1 infection in mice | promoted virus infection in the brain tissues of mice | 234.609 and 247.685 and 151.05 and 229.558 and 128.472 and 521.967 and 514.758 | 2266.42 and 1272.19 and 1516.42 and 1969.73 and 1635.92 and 1666.83 and 2034.41 | 2.362 and 11.4426 and 5.671 and 29.1839 and 18.1733 and 12.9008 | 4.055 and 17.5547 and 15.5667 and 41.0988 and 9.75 and 4.86 |  |  |  |  |  |  |  |  |  |  |  |
| CC(C)C[C@@H]1NC(=O)[C@H](CCCNC(=N)N)NC(=O)[C@H](C(C)C)NC(=O)[C@@H]2CCCN2C(=O)[C@@H](Cc2ccccc2)NC(=O)[C@H](CC(C)C)NC(=O)[C@H](CCCNC(=N)N)NC(=O)[C@H](C(C)C)NC(=O)[C@H](C)NC(=O)[C@@H](Cc2ccccc2)NC1=O [XQ2, Cyclo (LfAVRLfPVR)] (cyclo(L[dF]AVRL[dF]PVR)) |  |  |  |  |  |  | 45.3 ± 26.9 | 1.8 ± 0.6 | 4.5 ± 1.6 | 57.4165 | 140.669 | 252.736 | 35.9 µM and ~35 µM | 32.0968 | 115.953 | 275.186 | 86.5 ± 76.2 |
